# Measurements published in patent publication US7282210B2, “Process for the in vitro culture of different stages of tissular parasites” (priority 1993, dated 2007).
# How the values were obtained:
# [1] = test system: cultured amastigote forms of L. mexicana, L. amazonensis, L. braziliensis and L. chagasi; assay: direct leishmanicidal effect of nitric oxide on cultured amastigote forms; assay type: cell-based, Leishmania
# Description: (§1) Also, one of the mechanisms leading to lysis of the amastigote forms was elucidated.
# The culture kinetics as well as the differentiation of the amastigote forms into promastigote forms were monitored after this treatment.
# cis-aconitase = assay: enzymatic activities of amastigote forms treated or not treated with NO; assay type: biochemical, Leishmania
# Description: as §1
# [2] = test system: resistant amastigote forms of L. mexicana; assay: growth inhibition by pentamidine, resistant amastigote forms; assay type: cell-based
# Description: (§2) In the stage of putting in contact, the parasitic forms are used at concentrations of 10^6 parasite/ml and the activity of the medicaments is studied at increasing concentrations.
# (§3) Promastigote forms of L. mexicana resistant to pentamidine are obtained by medicamentous pressure in vitro and have a resistance index of about 30. They are then transformed according to the culture method already described into corresponding cultured amastigote forms which, after determination of the IC50, retain the resistance to pentamidine induced in the promastigote forms.
# (§4) For the promastigotes the value is 27 and for the amastigotes it is 26.
# [3] = test system: untreated promastigote forms of L. mexicana; assay: growth inhibition by pentamidine, untreated promastigote forms; assay type: cell-based; conditions: Leishmania mexicana, read-out: IC50 (concentration of pentamidine for which a growth inhibition of 50% is observed)
# Description: as §2, §3, §4
# [4] = test system: resistant promastigote forms of L. mexicana; assay: growth inhibition by pentamidine, resistant promastigote forms; assay type: cell-based; conditions: Leishmania mexicana, read-out: IC50 (concentration of pentamidine for which a growth inhibition of 50% is observed)
# Description: as §2, §3, §4
# [5] = medium containing alpha-ketoglutaric acid (3 mM) and cis-aconitate (3 mM) added immediately to parasites treated with NO
structure (smiles),measurement,setting,value
O=S(=O)([O-])[O-].[Fe+2] [FeSO4],growth of NO-treated amastigote forms,[1]; medium containing 100 μm of FeSO4 added immediately to parasites treated with NO,restore the growth of the amastigote forms
"[N]=O [NO, nitric oxide]",leishmanicidal effect on cultured amastigote forms,"[1]; gaseous NO (1%) carried by nitrogen (99%), pulsed for 15 minutes",leishmanicidal activity
same,effect on cis-aconitase activity,cis-aconitase,inhibition of cis-aconitase
O=C(O)CCC(=O)C(=O)O [alpha-ketoglutaric acid],growth of NO-treated amastigote forms,[1]; [5],restore the growth of the amastigote forms
O=C(O)/C=C(/CC(=O)O)C(=O)O [cis-aconitate],growth of NO-treated amastigote forms,[1]; [5],restore the growth of the amastigote forms
N=C(N)c1ccc(OCCCCCOc2ccc(C(=N)N)cc2)cc1 [pentamidine],IC50,"[2]; Leishmania mexicana, read-out: IC50 (concentration of pentamidine for which a growth inhibition of 50% is observed)",32 ± 1 µM
same,resistance index (IC50 of the resistant strain/IC50 of the untreated strain),[2]; amastigotes,26
same,IC50,[3],1200 ± 50 nM
same,IC50,[4],33 µM
